ChEMBL document CHEMBL5149963, “Xanthenes in Medicinal Chemistry - Synthetic strategies and biological activities” (Eur J Med Chem, 2021)
Converted amounts (≈) assume the structure as drawn.

Legend:
[1] = molecular target: Glucocorticoid receptor (Homo sapiens) (UniProt P04150); assay: Binding affinity to human GR assessed as inhibition of enzyme substrate complex formation
[2] = Activation of AMPK in rat L6 cells assessed as increase in AMPK phosphorylation; format: cell-based
[3] = test system: NB-4; assay: Antiproliferative activity against human NB-4 cells; format: functional, cell-based
[4] = test system: Vaccinia virus; assay: In vivo antiviral activity against Vaccinia virus infected in mouse assessed as reduction in virus severity of virus induced tail lesion at 250 mg/kg, po measured after 24 to 48 hrs relative to control; format: functional, Orthopoxvirus vaccinia; parameters: scale not given: the % may be the effect or the level left; conditions: time 24-48 hrs
[5] = Antioxidant activity assessed as DPPH radical scavenging activity relative to control; format: functional; parameters: concentration or dose not given beside the values
[6] = test system: HepG2; assay: Antiproliferative activity against human HepG2 cells assessed as reduction in cell viability measured after 48 hrs by trypan blue staining method; format: functional, cell-based; conditions: HepG2, 48 h
[7] = test system: SW480; assay: Antiproliferative activity against human SW480 cells assessed as reduction in cell viability measured after 48 hrs by trypan blue staining method; format: functional, cell-based; conditions: SW480, 48 h
[8] = test system: Bacillus subtilis; assay: Antibacterial activity against Bacillus subtilis ATCC 23857 by disc diffusion assay; format: functional
[9] = test system: Bel-7402; assay: Cytotoxicity against human Bel-7402 cells incubated for 48 hrs by MTT assay; format: functional, cell-based; conditions: Bel-7402, 48 h
[10] = test system: MG-63; assay: Cytotoxicity against human MG-63 cells incubated for 48 hrs by MTT assay; format: functional, cell-based; conditions: MG-63, 48 h
[11] = test system: SK-BR-3; assay: Cytotoxicity against human SK-BR-3 cells incubated for 48 hrs by MTT assay; format: functional, cell-based; conditions: SK-BR-3, 48 h
[12] = test system: HeLa; assay: Cytotoxicity against human HeLa cells incubated for 48 hrs by MTT assay; format: functional, cell-based
[13] = test system: MCF7; assay: Cytotoxicity against human MCF7 cells assessed as reduction in cell viability by MTT assay; format: functional, cell-based
[14] = test system: MDA-MB-231; assay: Cytotoxicity against human MDA-MB-231 cells assessed as reduction in cell viability by MTT assay; format: functional, cell-based
[15] = test system: CHO; assay: Cytotoxicity against CHO cells measured after 48 hrs by MTT assay; format: toxicity, cell-based, Cricetulus griseus; conditions: chinese hamster
[16] = test system: Plasmodium falciparum; assay: Antimalarial activity against chloroquine resistant Plasmodium falciparum K1 in human erythrocytes; format: functional, organism-based; conditions: K1, Erythrocyte
[17] = Cytotoxicity against normal lung fibroblast cells (unknown origin); format: toxicity, cell-based
[18] = Cytotoxicity against normal foreskin fibroblast cells (unknown origin); format: toxicity, cell-based
[19] = Cytotoxicity against ewing sarcoma cells (unknown origin); format: functional, cell-based; conditions: Ewing sarcoma cell
[20] = Cytotoxicity against rhabdomyosarcoma cells (unknown origin); format: functional, cell-based; conditions: Rhabdomyosarcoma cell
[21] = test system: Vesicular stomatitis virus; assay: Antiviral activity against Vesicular stomatitis virus; format: functional, organism-based
[22] = Cytotoxicity against osteosarcoma cells (unknown origin); format: functional, cell-based; conditions: Osteosarcoma cell
[23] = Cytotoxicity against neuroblastoma cells (unknown origin); format: functional, cell-based; conditions: Neuroblastoma cell
[24] = test system: Human immunodeficiency virus; assay: Antiviral activity against Human immunodeficiency virus; format: functional, organism-based; conditions: Human immunodeficiency virus 1
[25] = test system: unidentified influenza virus; assay: Antiviral activity against influenza virus; format: functional, organism-based
[26] = Cytotoxicity against normal primary bone marrow fibroblast cells (unknown origin); format: toxicity, cell-based
[27] = Antioxidant activity assessed as DPPH radical scavenging activity at 50 to 250 microg/ml incubated for 20 mins relative to control; format: functional; conditions: dose 50-250 µg/ml
[28] = Antioxidant activity assessed as ABTS radical scavenging activity at 50 to 250 microg/ml incubated for 7 mins relative to control; format: functional; conditions: dose 50-250 µg/ml
[29] = test system: A549; assay: Cytotoxicity against human A549 cells assessed as reduction in cell viability measured after 48 hrs by MTT assay; format: functional, cell-based; conditions: A549, 48 h
[30] = test system: HeLa; assay: Cytotoxicity against human HeLa cells assessed as reduction in cell viability measured after 48 hrs by MTT assay; format: functional, cell-based
[31] = test system: MG-63; assay: Cytotoxicity against human MG-63 cells assessed as reduction in cell viability measured after 48 hrs by MTT assay; format: functional, cell-based; conditions: MG-63, 48 h
[32] = test system: Bel-7402; assay: Cytotoxicity against human Bel-7402 cells assessed as reduction in cell viability measured after 48 hrs by MTT assay; format: functional, cell-based; conditions: Bel-7402, 48 h
[33] = test system: Trypanosoma cruzi; assay: Antiprotozoal activity against Trypanosoma cruzi; format: functional; conditions: read-out: ED50 (the source's name)
[34] = test system: Leishmania donovani; assay: Antiprotozoal activity against Leishmania donovani; format: functional; conditions: read-out: ED50 (the source's name)
[35] = test system: Trypanosoma brucei; assay: Antiprotozoal activity against Trypanosoma brucei; format: functional; conditions: read-out: ED50 (the source's name)
[36] = molecular target: Beta-secretase 1 (Homo sapiens, UniProt P56817); assay: Inhibition of BACE1 (unknown origin)
Beta-secretase 1, sequence (P56817 whole entry): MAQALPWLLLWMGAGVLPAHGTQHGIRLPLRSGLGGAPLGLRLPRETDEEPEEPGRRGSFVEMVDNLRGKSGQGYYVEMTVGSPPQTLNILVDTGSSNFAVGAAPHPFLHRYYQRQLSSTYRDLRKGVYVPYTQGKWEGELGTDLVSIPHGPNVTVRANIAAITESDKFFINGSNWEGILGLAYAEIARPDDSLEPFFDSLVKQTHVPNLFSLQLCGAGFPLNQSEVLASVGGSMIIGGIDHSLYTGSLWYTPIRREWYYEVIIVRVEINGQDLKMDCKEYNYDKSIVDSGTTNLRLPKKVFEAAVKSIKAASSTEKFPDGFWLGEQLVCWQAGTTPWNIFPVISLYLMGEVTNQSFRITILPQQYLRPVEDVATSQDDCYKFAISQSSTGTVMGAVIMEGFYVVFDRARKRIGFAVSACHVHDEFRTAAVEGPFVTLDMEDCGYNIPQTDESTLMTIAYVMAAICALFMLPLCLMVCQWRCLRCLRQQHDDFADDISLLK

[37] = test system: Plasmodium falciparum; assay: Antimalarial activity against chloroquine resistant Plasmodium falciparum K14 in human blood assessed as reduction in parasitemia measured after 42 hrs; format: functional, organism-based

Glucocorticoid receptor (Homo sapiens), sequence (P04150 whole entry): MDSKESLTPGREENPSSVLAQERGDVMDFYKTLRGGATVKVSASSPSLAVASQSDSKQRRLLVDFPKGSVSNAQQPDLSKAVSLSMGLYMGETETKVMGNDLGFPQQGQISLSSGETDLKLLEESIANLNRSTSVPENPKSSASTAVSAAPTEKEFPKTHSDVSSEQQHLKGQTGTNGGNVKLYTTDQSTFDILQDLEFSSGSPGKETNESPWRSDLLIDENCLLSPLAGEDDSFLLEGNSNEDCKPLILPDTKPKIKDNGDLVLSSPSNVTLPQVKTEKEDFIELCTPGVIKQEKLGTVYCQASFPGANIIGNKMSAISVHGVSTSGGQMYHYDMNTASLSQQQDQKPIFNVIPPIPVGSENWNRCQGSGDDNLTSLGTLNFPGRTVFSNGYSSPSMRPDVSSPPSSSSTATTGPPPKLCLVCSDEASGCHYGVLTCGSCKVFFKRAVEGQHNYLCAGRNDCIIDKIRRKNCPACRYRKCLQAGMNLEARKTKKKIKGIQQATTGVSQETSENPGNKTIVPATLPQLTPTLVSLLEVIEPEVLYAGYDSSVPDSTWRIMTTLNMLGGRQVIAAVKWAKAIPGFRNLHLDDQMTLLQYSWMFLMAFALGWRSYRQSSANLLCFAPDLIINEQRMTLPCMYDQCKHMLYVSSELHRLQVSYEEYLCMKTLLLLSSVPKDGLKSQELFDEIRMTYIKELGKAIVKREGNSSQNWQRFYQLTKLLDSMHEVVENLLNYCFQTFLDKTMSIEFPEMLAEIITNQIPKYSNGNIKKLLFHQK

O=C(O)CCc1c2ccc(=O)cc-2oc2cc(O)ccc12
Kis [1]: 27 µM

N#Cc1cccc(NC(=O)NC(NC(=O)C2c3ccccc3Oc3ccccc32)C(Cl)(Cl)Cl)c1 (centres undefined)
EC50 [2]: 1.5 µM

CNC(=O)c1ccc2c3c(ccc2c1)Oc1ccc2cc(C(=O)NC)ccc2c1C3c1ccc(Cl)cc1
IC50 [3]: 0.76 µM

CN(C)CC(=O)c1ccc2c(c1)Cc1cc(C(=O)CN(C)C)ccc1O2
Activity [4]: 31%

O=C(O)/C=C/c1ccc(O)c(O)c1
Activity [5]: 58.6%

COc1cc2c(cc1OC)-c1c(C(=O)OCCc3ccccc3)c(C(=O)OCCc3ccccc3)cc3ccc(OC)c(c13)O2
IC50 [6]: > 100 µM | IC50 [7]: > 100 µM

O=C(N[C@H](CO)[C@H](O)c1ccc([N+](=O)[O-])cc1)C(Cl)Cl [CHLORAMPHENICOL]
MIC [8]: 68.7 µg/mL (≈ 213 µM)

O=C1C=Cc2cccc3c2C1c1c(ccc2ccccc12)O3 (centres undefined)
IC50 [9]: 17.6 µM | IC50 [10]: 20.1 µM | IC50 [11]: 15.5 µM | IC50 [12]: 18.5 µM

COCc1cc(C)cc2c1Oc1ccc(C)cc1C2
MIC [8]: 25.4 µg/mL (≈ 99.9 µM)

CC/C(=C1\c2ccccc2Oc2cc(OCCN3CCCC3)ccc21)c1ccccc1
IC50 [13]: 12.4 µM | IC50 [14]: 25.4 µM

Fc1ccc(C2c3cc(-c4ccccc4)ccc3Oc3ccc4ccccc4c32)cc1 (centres undefined)
IC50 [3]: > 50 µM

COC(=O)c1cc2ccc(OC)c3c2c(c1C(=O)OC)-c1cc(OC)c(OC)cc1O3
IC50 [6]: > 100 µM | IC50 [7]: > 100 µM

CN(C)CCCNCC1c2ccccc2Oc2ccccc21
IC50 [15]: 331.1 µM | IC50 [16]: 0.78 µM

O=C1C(CO)=Cc2cccc3c2C1(O)c1c(ccc2ccccc12)O3 (centres undefined)
IC50 [9]: 45.2 µM | IC50 [10]: 54.8 µM | IC50 [11]: 26.2 µM | IC50 [12]: 68.8 µM

O=[As][As+](=O)[O-] (centres undefined) [ARSENIC TRIOXIDE]
IC50 [3]: 5.31 µM

O=C(O)c1c(Cl)c(Cl)c(Cl)c(Cl)c1-c1c2cc(I)c(=O)c(I)c-2oc2c(I)c(O)c(I)cc12 [ROSE BENGAL SODIUM]
IC50 [17]: 75 µM | IC50 [18]: 73 µM | IC50 [19]: 45 µM | IC50 [20]: 51 µM | IC50 [21]: 0.008 µM | IC50 [22]: 75 µM | IC50 [23]: 73 µM | IC50 [24]: 0.05 µM | IC50 [25]: 0.3 µM | IC50 [26]: 136 µM

Cc1ccc(O)c(COCc2cc(C)cc3c2Oc2ccc(C)cc2C3)c1
MIC [8]: 36.1 µg/mL (≈ 100 µM)

COC12C(=O)C=Cc3cc(Br)cc(c31)Oc1ccc3cc(Br)ccc3c12 (centres undefined)
IC50 [9]: 42.3 µM | IC50 [10]: 39.2 µM | IC50 [11]: 14.3 µM | IC50 [12]: 28.1 µM

Cc1cc2nc3cc(C)c(N)cc3[n+](-c3ccccc3)c2cc1N
Kis [1]: 453 µM

COc1cc(C2c3c(ccc4ccccc34)Oc3ccc4ccccc4c32)ccc1O
Activity [27]: 86.8% | Activity [28]: 83.1%

COc1ccc(C2c3c(ccc4ccccc34)Oc3ccc4ccccc4c32)cc1OC
Activity [27]: 52.6% | Activity [28]: 70.8%

CC(=O)C1C(=O)C[C@@H]2CC[C@@]13c1c(cccc12)Oc1ccc2ccccc2c13 (some centres undefined)
IC50 [29]: 54.9 µM | IC50 [30]: 30.1 µM | IC50 [31]: 82.5 µM | IC50 [32]: 17.1 µM

CN(C)CCCNC(=O)c1cc(C(C)(C)C)cc2c1Oc1c(C(=O)NCCCN(C)C)cc(C(C)(C)C)cc1C2(C)C
EC50 [33]: 0.48 µM | EC50 [34]: 0.55 µM | EC50 [35]: 0.02 µM

O=C(Nc1cccc([N+](=O)[O-])c1)NC(NC(=O)C1c2ccccc2Oc2ccccc21)C(Cl)(Cl)Cl (centres undefined)
EC50 [2]: 1.5 µM

Oc1ccc(C2c3c(ccc4ccccc34)Oc3ccc4ccccc4c32)cc1
Activity [27]: 53.1% | Activity [28]: 73.2%

COc1ccc(C2c3c(ccc4ccccc34)Oc3ccc4ccccc4c32)cc1
Activity [27]: 47.1% | Activity [28]: 67.5%

CC(=O)Oc1cc2c(cc1OC(C)=O)-c1c(C(=O)OCCc3ccccc3)c(C(=O)OCCc3ccccc3)cc3ccc(OC(C)=O)c(c13)O2
IC50 [6]: 26.7 µM | IC50 [7]: 3.21 µM

CC(C)(C)C(=O)N[C@H]1CC[C@@H]2Oc3ccc(-c4cncc(F)c4)cc3C3(CSC(N)=N3)[C@H]2C1 (some centres undefined)
IC50 [36]: 0.0011 µM

CCOC12C(=O)C(CO)=Cc3cc(CO)cc(c31)Oc1c(CO)cc3cc(CO)ccc3c12 (centres undefined)
IC50 [9]: 10.1 µM | IC50 [10]: 25.2 µM | IC50 [11]: 6.2 µM | IC50 [12]: 9.4 µM

Cc1ccc(C2c3cc(-c4ccccc4)ccc3Oc3ccc4ccccc4c32)cc1 (centres undefined)
IC50 [3]: > 50 µM

Clc1ccc(C2c3cc(-c4ccccc4)ccc3Oc3ccc4ccccc4c32)cc1 (centres undefined)
IC50 [3]: > 50 µM

COC(=O)[C@@]1(O)C[C@@H](OC(=O)c2c(C(=O)O[C@@H]3C[C@](O)(C(=O)OC)C[C@@H]4OC(C)(C)O[C@H]43)cc3ccc(O)c4c3c2-c2cc(O)c(O)cc2O4)[C@@H]2OC(C)(C)O[C@@H]2C1
Activity [5]: 28.1%

O=C(OCCc1ccccc1)c1cc2ccc(O)c3c2c(c1C(=O)OCCc1ccccc1)-c1cc(O)c(O)cc1O3
IC50 [6]: 4.76 µM | IC50 [7]: 2.57 µM | Activity [5]: 3.6%

CN(C)C(=N)NC(=N)N [METFORMIN]
EC50 [2]: 10000 µM

O=C1OC(=O)c2c1cc1ccc(O)c3c1c2-c1cc(O)c(O)cc1O3
IC50 [6]: > 100 µM | IC50 [7]: > 100 µM

Cc1cc(C(C)(C)C)c(O)c(C(C)(C)C)c1
Activity [5]: 3.6%

COC(=O)c1cc2ccc(O)c3c2c(c1C(=O)OC)-c1cc(O)c(O)cc1O3
IC50 [6]: 34.8 µM | IC50 [7]: 32.9 µM

c1ccc(-c2ccc3c(c2)C(c2ccccc2)c2c(ccc4ccccc24)O3)cc1 (centres undefined)
IC50 [3]: > 50 µM

COC(=O)c1cc2ccc(OC(C)=O)c3c2c(c1C(=O)OC)-c1cc(OC(C)=O)c(OC(C)=O)cc1O3
IC50 [6]: 28.6 µM | IC50 [7]: 25.5 µM

CCOc1ccc(N2C(=O)C3(c4ccccc4Oc4ccccc43)C23c2ccccc2-c2ccccc23)cc1
IC50 [37]: 5 µM

c1ccc(C2c3c(ccc4ccccc34)Oc3ccc4ccccc4c32)cc1
Activity [27]: 31.1% | Activity [28]: 63.5%

Cc1c(C)c2c(c(C)c1O)CCC(C)(CCCC(C)CCCC(C)CCCC(C)C)O2 (racemic)
Activity [5]: 61.1%

CNC(=O)c1ccc2c3c(ccc2c1)Oc1ccc2cc(C(=O)NC)ccc2c1C3c1ccc(F)cc1
IC50 [3]: 0.52 µM
